The text below walks through data of PubChem BioAssay AID1996.

≈ marks a conversion by molar mass, not a printed value.

The kinetic solubility is solubility judged after dilution from a stock solution rather than from solid.

For the data set the following is noted: buffer; pH 7.4; 200.0 µM.
As for `O=C(NCc1ccccc1F)c1ccncc1`, the solubility (kinetic) turned out to be 29.5 µg/mL (≈ 128 µM). On to `CC(=O)NCC(=O)NNC1CC(=O)N(c2cccc(Cl)c2)C1=O` (stereo not given), for which the solubility (kinetic) is more than 50.8 µg/mL. Under `Cc1nc(NC(=O)c2ccccc2O)sc1C` stands 10.2 µg/mL (≈ 41.1 µM); under `CSc1ccccc1C(=O)NCc1ccccc1C`, more than 40.7 µg/mL; under `Nc1cc(N)nc(SCC(=O)NCCC2=CCCCC2)n1`, more than 46.1 µg/mL. With `Cc1nc2nc(SCC(=O)c3ccccc3)[nH]c2cc1Br` the figure was less than 0.3 µg/mL; with `CC(=O)c1c(C(C)=O)c(C)n(-c2cccc3cccnc23)c1C`, more than 46 µg/mL; with `O=C(COC(=O)c1cccc(Cl)c1)Nc1cccc(S(=O)(=O)NC2=NCCC2)c1`, 63.3 µg/mL (≈ 145 µM). As to `Cc1cc(C(=O)Nc2ccccc2C)on1`, the solubility (kinetic) was more than 32.4 µg/mL.

Take `Cc1ccc(C(=O)CCC(=O)Nc2ccccc2C)cc1C`: the kinetic solubility was less than 0.6 µg/mL. `O=c1[nH]snc1N1CCOCC1` yielded a solubility (kinetic) of more than 28.1 µg/mL. In turn, `CC(C)(C)c1cc(C(=S)N2CCCC2)cc(C(C)(C)C)c1O` returned a solubility (kinetic) of 4.7 µg/mL (≈ 14.7 µM).

`CCC1SC(=Nc2cccc(C)c2)NC1=O` (stereo not given) gave a solubility (kinetic) of more than 35.1 µg/mL. With `CCC(C)C(=O)Nc1ccc(S(=O)(=O)N2CCCC2)cc1` (stereo not given) the figure was 42.3 µg/mL (≈ 136 µM); with `CC1C(=O)N2CCCc3cc(NS(=O)(=O)c4ccc(F)cc4)cc1c32` (stereo not given), more than 54.1 µg/mL; with `CNS(=O)(=O)c1cccc(C(=O)OCC(=O)Nc2ccc3ccccc3c2)c1`, 2.8 µg/mL (≈ 7.03 µM). With `Cc1ccc(C(=O)Nc2cccnc2)cc1Cl` the figure was 35.6 µg/mL (≈ 144 µM); with `Cc1ccccc1N1C(=O)C2CCCN2C1=S` (stereo not given), more than 36.9 µg/mL; with `COc1ccc(/C=C/C(=O)NCCN2CCOCC2)cc1OC`, more than 48.1 µg/mL. Compound `O=C(CSc1nc2c(c(=O)[nH]1)CCC2)Nc1ccc(F)cc1` registered a kinetic solubility of 10.7 µg/mL (≈ 33.5 µM).

For `CCOC(=O)C1=C(N)Oc2cc(O)ccc2C1c1ccc(C)cc1` (stereo not given), the kinetic solubility was less than 0.7 µg/mL. Under `O=C(NCCc1ccc(F)cc1)C1CCCO1` (stereo not given) stands 27.6 µg/mL (≈ 116 µM).

Take `O=C(NCc1ccco1)/C(=C\c1ccccc1)NC(=O)c1ccccc1`: the solubility (kinetic) turned out to be 17.2 µg/mL (≈ 49.7 µM). With `O=C(/C=C/c1ccccc1)NC(=S)Nc1ccccc1` the figure was less than 0.3 µg/mL; with `CC1CCN(C(=O)c2cc(-c3ccco3)on2)CC1`, 37.7 µg/mL (≈ 145 µM).

The compound `COc1ccc(NC(=O)COC(=O)c2ccc3ccccc3n2)c(OC)c1` returned a kinetic solubility of 3 µg/mL (≈ 8.19 µM). Against the preceding compound, the solubility kinetic is about 13-fold lower.

`CC(=NCCc1ccccc1)c1c(O)n(C)c(=O)n(C)c1=O` came in with a solubility (kinetic) of 37.2 µg/mL (≈ 123 µM).

In turn, `Cc1ccc[n+](C(C)C(=O)c2ccc(Cl)cc2)c1.[Br-]` (stereo not given) showed a kinetic solubility of 44.9 µg/mL. For the compound `COC(=O)/N=C(/Cc1ccc(OC)cc1)c1ccc(OC)cc1`, the solubility (kinetic) is 43.6 µg/mL (≈ 139 µM). The solubility kinetic values of the last two compounds are within 1.5-fold of each other. `COc1ccc(Nc2cc(C)c3c(O)cccc3n2)cc1` displayed a solubility (kinetic) of 22.1 µg/mL (≈ 78.8 µM). This solubility kinetic is about 2-fold lower than that of the compound before. Take `O=C(COc1ccc(Cl)cc1)NCc1ccc(F)cc1`: the solubility (kinetic) was 41.5 µg/mL (≈ 141 µM).

In turn, `Cc1ccc2c(c1)N(CC(=O)N1CCOCC1)C(=O)C(C)O2` (stereo not given) came in with a kinetic solubility of 39.6 µg/mL (≈ 130 µM). The compound `Nc1ccc(C(=O)OCc2ccncc2)cc1[N+](=O)[O-]` displayed a solubility (kinetic) of 14 µg/mL (≈ 51.2 µM). Take `Cc1ccc(N2C(=O)N(c3ccc(C)cc3)C3CS(=O)(=O)CC32)cc1` (stereo not given): the kinetic solubility worked out at 12.9 µg/mL (≈ 36.2 µM). Under `O=C(CN1CCc2ccccc2C1)Nc1ccc(F)cc1F` stands 28.5 µg/mL (≈ 94.3 µM); under `COc1ccc(Cl)cc1/C=C(\C#N)C(N)=O`, more than 35.5 µg/mL; under `CC(=O)CN1C(=O)NC(c2ccccc2)(c2ccccc2)C1=O`, 33.9 µg/mL (≈ 110 µM). In turn, `O=C(COc1ccccc1Cl)NCCCNC(=O)c1ccncc1` returned a solubility (kinetic) of 44.7 µg/mL (≈ 129 µM). `Cc1ccc(N(CCO)C(=S)Nc2ccccc2)cc1` gave a solubility (kinetic) of more than 43 µg/mL. With `O=C(O)c1cc(S(=O)(=O)NCC2COc3ccccc3O2)ccc1Cl` (stereo not given) the figure was more than 57.6 µg/mL. In the case of `CC(C)(C)C(=O)COC(=O)C1=NN(c2ccccc2)C(=O)CC1`, the kinetic solubility is more than 47.5 µg/mL. With `COC(=O)c1cccc(NC(=O)CN2C(=O)c3ccccc3C2=O)c1` the figure was 21.3 µg/mL (≈ 63 µM).

In turn, `Cc1noc(C)c1S(=O)(=O)Nc1ccc(C(C)C)cc1` returned a kinetic solubility of more than 44.2 µg/mL. With `Cc1ccc(C)c(NC(=O)CN(C)C(=O)c2ccc(Cl)nc2)c1`, the kinetic solubility was more than 49.8 µg/mL.

Turning to `COc1ccc(-c2cc(C(=O)N3CCCCCC3)no2)cc1`, the kinetic solubility was 4 µg/mL (≈ 13.3 µM).

In turn, `O=C(C1CCCO1)N(c1ccc(F)cc1)C1C=CS(=O)(=O)C1` (stereo not given) registered a solubility (kinetic) of more than 48.8 µg/mL.

On to `CN(C)/C=C/C(=O)c1ccc(C(F)(F)F)cc1F`, for which the solubility (kinetic) is 35 µg/mL (≈ 134 µM).

The compound `COc1ccccc1CC(=O)NCCc1ccccc1` showed a kinetic solubility of more than 40.4 µg/mL. With `COc1ccc(Cl)cc1NC(=O)NCc1ccccn1` the figure was 41.6 µg/mL (≈ 143 µM); with `Cc1snc(SCc2cccc(Cl)c2)c1C#N`, less than 0.3 µg/mL.

`Cc1ccc(NC(=O)c2cccc3cccnc23)cc1`: the solubility (kinetic) came out at 6.7 µg/mL (≈ 25.5 µM).

In the case of `O=C(O)c1ccc(S(=O)(=O)N2CCCc3ccccc32)cc1`, the kinetic solubility was more than 47.6 µg/mL. Under `O=C(CSc1nc2ccccc2c(=O)n1CCCN1CCOCC1)Nc1ccc(Br)cc1` stands 5.3 µg/mL (≈ 10.2 µM); under `Cc1ccc(OCC(=O)Oc2ccccc2[N+](=O)[O-])cc1`, 17.4 µg/mL (≈ 60.6 µM); under `O=C(O)C1Cc2[nH]cnc2C(c2cccc([N+](=O)[O-])c2)N1` (stereo not given), 43.1 µg/mL (≈ 150 µM). Under `O=C(Cc1ccc([N+](=O)[O-])cc1)Nc1ccon1` stands 18.3 µg/mL (≈ 74 µM); under `Cc1coc2cc3oc(=O)c(CCC(=O)NC4CC4)c(C)c3cc12`, 16.7 µg/mL (≈ 51.3 µM); under `N#CC1(N2CCN(C(=O)c3ccccc3)CC2)CCCCC1`, 35.9 µg/mL (≈ 121 µM). With `Brc1cccc(Nc2nc(-c3cccnc3)cs2)c1` the figure was less than 0.2 µg/mL. `COc1ccc(C(=O)c2cnc[nH]2)cc1OC` gave a solubility (kinetic) of 33 µg/mL (≈ 142 µM). Under `Nc1nc(Nc2ccc(Cl)cc2)nc(NCc2ccco2)c1[N+](=O)[O-]` stands 1 µg/mL (≈ 2.77 µM). With `O=[N+]([O-])/C(C(Cl)=C(Cl)Cl)=C1\Nc2ccccc2O1` the figure was more than 46.1 µg/mL; with `CCCN1CNC(=S)N(c2cccc(C)c2)C1`, 37.2 µg/mL (≈ 149 µM); with `Cc1ccc2c(c1C)NC(=O)CC(c1ccccc1O)=N2`, 0.6 µg/mL (≈ 2.14 µM). Turning to `COc1cccc(CSc2nc3ccncc3[nH]2)c1`, the solubility (kinetic) is more than 40.7 µg/mL. With `CC(=O)c1ccc(NC(=O)COC(=O)C2C3CC4OC(=O)C2C4C3)cc1` (stereo not given) the figure was more than 53.6 µg/mL; with `CCOC(=O)c1sc2nc(C)nc(NC3CCC(O)CC3)c2c1C` (stereo not given), less than 0.2 µg/mL. Turning to `COc1ccc(CNC(=O)COc2cccnc2[N+](=O)[O-])cc1`, the solubility (kinetic) is more than 47.6 µg/mL.

Compound `OC1(C#CCN2CCCC2)c2ccccc2-c2ccccc21` showed a kinetic solubility of 11.4 µg/mL (≈ 39.4 µM). `O=C(COC(=O)/C=C/c1ccccc1Cl)NCC1CCCO1` (stereo not given) came in with a kinetic solubility of 31.9 µg/mL (≈ 98.5 µM). In the case of `CN1CCN(S(=O)(=O)c2ccccc2)C(c2ccccc2)C1` (stereo not given), the kinetic solubility is 44.2 µg/mL (≈ 140 µM). With `CN1CCN(C(=O)c2ccc(-c3cccs3)s2)CC1` the figure was more than 43.9 µg/mL. Turning to `O=C(O)c1ccc(Cl)c(S(=O)(=O)Nc2ccc(S(=O)(=O)N3CCCC3)cc2)c1`, the solubility (kinetic) is more than 66.7 µg/mL. In turn, `Cc1ccccc1NC(=O)COC(=O)c1cc[n+]([O-])cc1` yielded a kinetic solubility of more than 42.9 µg/mL. With `Cc1oc2ccccc2c1CNC(=O)N(C)C` the figure was more than 34.8 µg/mL.
